26 molecules from ChEMBL document CHEMBL3045711, “Neonicotinoid insecticides: oxidative stress in planta and metallo-oxidase inhibition” (J Agric Food Chem, 2011) can be followed below.

One data set concerns the target T1, Tyrosinase (Agaricus bisporus, UniProt O42713).
T1 sequence (O42713 whole entry): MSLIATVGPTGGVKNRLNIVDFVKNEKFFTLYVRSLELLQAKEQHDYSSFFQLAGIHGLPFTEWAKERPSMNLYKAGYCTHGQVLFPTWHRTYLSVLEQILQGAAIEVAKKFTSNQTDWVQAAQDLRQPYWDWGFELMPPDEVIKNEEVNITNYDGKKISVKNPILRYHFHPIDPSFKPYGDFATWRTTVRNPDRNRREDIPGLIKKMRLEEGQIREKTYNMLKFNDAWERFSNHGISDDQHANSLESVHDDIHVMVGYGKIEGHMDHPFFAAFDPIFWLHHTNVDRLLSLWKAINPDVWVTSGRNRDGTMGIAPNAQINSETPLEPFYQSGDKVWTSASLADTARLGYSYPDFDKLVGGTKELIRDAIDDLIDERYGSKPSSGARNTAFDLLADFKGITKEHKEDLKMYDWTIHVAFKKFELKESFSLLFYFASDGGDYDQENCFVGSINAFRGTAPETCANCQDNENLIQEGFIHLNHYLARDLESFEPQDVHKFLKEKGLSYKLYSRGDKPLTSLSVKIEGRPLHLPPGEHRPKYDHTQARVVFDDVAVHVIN

For another data set, the target named is T2, Aldehyde oxidase 1 (Oryctolagus cuniculus, UniProt P80456).
T2 sequence (P80456 whole entry): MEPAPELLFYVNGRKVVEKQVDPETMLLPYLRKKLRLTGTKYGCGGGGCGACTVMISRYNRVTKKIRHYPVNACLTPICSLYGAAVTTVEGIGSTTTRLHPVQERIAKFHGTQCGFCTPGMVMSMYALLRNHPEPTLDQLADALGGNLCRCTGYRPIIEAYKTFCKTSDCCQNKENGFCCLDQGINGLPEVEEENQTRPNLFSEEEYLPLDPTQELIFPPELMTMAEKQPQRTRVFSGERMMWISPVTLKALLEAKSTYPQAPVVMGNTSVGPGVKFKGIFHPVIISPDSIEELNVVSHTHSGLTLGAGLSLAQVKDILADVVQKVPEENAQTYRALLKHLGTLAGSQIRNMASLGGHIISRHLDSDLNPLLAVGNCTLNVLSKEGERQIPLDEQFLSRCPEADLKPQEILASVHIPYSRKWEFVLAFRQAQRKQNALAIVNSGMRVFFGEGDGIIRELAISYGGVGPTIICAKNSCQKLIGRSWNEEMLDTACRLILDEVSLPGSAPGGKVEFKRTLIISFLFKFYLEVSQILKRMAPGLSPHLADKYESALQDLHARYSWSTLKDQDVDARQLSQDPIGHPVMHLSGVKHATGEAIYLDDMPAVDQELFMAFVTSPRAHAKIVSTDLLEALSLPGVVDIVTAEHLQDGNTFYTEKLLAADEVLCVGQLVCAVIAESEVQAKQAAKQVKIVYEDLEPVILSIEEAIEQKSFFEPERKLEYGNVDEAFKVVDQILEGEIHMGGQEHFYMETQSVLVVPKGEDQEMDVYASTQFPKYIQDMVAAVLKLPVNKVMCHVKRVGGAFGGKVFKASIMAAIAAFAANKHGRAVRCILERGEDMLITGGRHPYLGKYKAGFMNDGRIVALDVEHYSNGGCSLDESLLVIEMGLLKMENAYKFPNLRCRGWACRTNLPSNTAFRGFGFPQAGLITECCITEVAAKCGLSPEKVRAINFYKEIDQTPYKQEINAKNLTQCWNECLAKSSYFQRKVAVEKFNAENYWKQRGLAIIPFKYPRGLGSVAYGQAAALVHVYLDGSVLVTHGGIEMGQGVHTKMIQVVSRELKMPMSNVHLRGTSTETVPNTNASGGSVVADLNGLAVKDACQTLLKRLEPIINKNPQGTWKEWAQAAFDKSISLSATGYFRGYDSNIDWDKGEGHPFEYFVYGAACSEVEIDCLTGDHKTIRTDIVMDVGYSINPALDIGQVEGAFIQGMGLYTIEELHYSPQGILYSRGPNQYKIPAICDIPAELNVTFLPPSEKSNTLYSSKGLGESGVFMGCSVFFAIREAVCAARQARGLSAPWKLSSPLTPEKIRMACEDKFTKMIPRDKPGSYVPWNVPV
It counts as ADME, tissue-based, Liver, Cytosol.

A further data set relates to Spinacia oleracea. As to the kind of experiment: Phytotoxicity against Spinacia oleracea (spinach) seedlings assessed as lesions at 100 ppm after 9 days. It counts as organism-based. The note with it: in vivo, 216 h.
The next data set addresses T3, Catalase (Bos taurus, UniProt P00432).
T3 sequence (P00432 whole entry): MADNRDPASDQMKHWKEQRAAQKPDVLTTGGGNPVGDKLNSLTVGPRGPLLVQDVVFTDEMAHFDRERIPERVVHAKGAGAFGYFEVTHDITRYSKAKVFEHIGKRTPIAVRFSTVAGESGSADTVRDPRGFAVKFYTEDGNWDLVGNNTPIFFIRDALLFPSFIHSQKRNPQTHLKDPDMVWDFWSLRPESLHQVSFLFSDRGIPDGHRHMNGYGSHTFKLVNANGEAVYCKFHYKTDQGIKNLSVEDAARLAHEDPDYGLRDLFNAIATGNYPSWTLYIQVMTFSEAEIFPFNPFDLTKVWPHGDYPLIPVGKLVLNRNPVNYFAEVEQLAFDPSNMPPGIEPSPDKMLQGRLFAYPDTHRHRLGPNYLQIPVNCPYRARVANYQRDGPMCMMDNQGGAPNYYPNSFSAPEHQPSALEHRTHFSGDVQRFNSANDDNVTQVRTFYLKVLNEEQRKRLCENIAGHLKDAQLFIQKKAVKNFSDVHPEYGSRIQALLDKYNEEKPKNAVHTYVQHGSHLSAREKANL
It counts as ADME, tissue-based, Liver.

Description for Aldehyde oxidase 1: Inhibition of Oryctolagus cuniculus (rabbit) AOX in liver cytosol
Description for Catalase: Inhibition of Bos taurus (bovine) CAT in liver
Description for Tyrosinase: Inhibition of Agaricus bisporus (mushroom) tyrosinase

In general, IC50 refers to the midpoint of a concentration-inhibition curve. As to `O=Cc1cccnc1Cl` [2-CHLORONICOTINALDEHYDE], the results for the IC50 on Tyrosinase (read-out: IC50) and against Aldehyde oxidase 1 were more than 1000 µM and 350 µM, respectively.

Take `O=C(O)c1cccnc1` [NIACIN]: the concentration for half-maximal inhibition (IC50) at Tyrosinase (read-out: IC50) was more than 1000 µM.

With `C/C(=N\C#N)N(C)Cc1ccc(Cl)nc1`, the IC50 at Tyrosinase (read-out: IC50) is 1740 µM; against Aldehyde oxidase 1, more than 1000 µM. In addition, the Activity entry with Spinacia oleracea is recorded as “Toxic”.

As to `O=Cc1ccc(Cl)nc1` [6-CHLORONICOTINALDEHYDE], the IC50 at Tyrosinase (read-out: IC50) came out at 770 µM; on Aldehyde oxidase 1 it was 720 µM.

For the molecule `CN/C(=N\[N+](=O)[O-])NCc1cnc(Cl)s1` [CLOTHIANIDINE], the IC50 at Tyrosinase (read-out: IC50) and against Aldehyde oxidase 1 was more than 1000 µM each time. For the same molecule, the Activity entry with Spinacia oleracea was “Toxic”.

As to `O=C(O)c1ccccc1` [BENZOIC ACID], the values for the IC50 at Tyrosinase (read-out: IC50), at Aldehyde oxidase 1 and on Catalase were 270 µM, more than 1000 µM and more than 1000 µM, respectively.

Turning to `O=Cc1cccnc1` [NICOTINALDEHYDE], the IC50 on Tyrosinase (read-out: IC50) was found to be 28 µM; against Aldehyde oxidase 1, 600 µM.

With `CN1COCN(Cc2cnc(Cl)s2)/C1=N\[N+](=O)[O-]` [THIAMETHOXAM], the IC50 on Tyrosinase (read-out: IC50) and at Aldehyde oxidase 1 was more than 1000 µM in each case.

Turning to `CCN(Cc1ccc(Cl)nc1)/C(=C/[N+](=O)[O-])NC`, the IC50 at Tyrosinase (read-out: IC50) and on Aldehyde oxidase 1 was more than 1000 µM in each case.

With `N=C(N)NN` [PIMAGEDINE], the midpoint of inhibition at Catalase, the IC50, lay at 500 µM.

For the molecule `CN/C(=N/CC1CCOC1)N[N+](=O)[O-]` (stereo not drawn) [DINOTEFURAN], the IC50 on Tyrosinase (read-out: IC50) and at Aldehyde oxidase 1 was more than 1000 µM in each case.

For the molecule `O=C(O)c1cnc(Cl)s1`, the IC50 on Tyrosinase (read-out: IC50), on Aldehyde oxidase 1 and against Catalase was more than 1000 µM each time.

With `O=CC1CCOC1` (stereo not drawn) [TETRAHYDROFURAN-3-CARBALDEHYDE], the IC50 at Tyrosinase (read-out: IC50) was more than 1000 µM; on Aldehyde oxidase 1 it was 360 µM.

As to `Oc1ncnc2[nH]ncc12` [ALLOPURINOL], the IC50 on Tyrosinase (read-out: IC50) and against Aldehyde oxidase 1 was more than 1000 µM each time.

Consider `O=Cc1cncs1` [THIAZOLE-5-CARBALDEHYDE], for which the IC50 on Tyrosinase (read-out: IC50) was found to be 7 µM; against Aldehyde oxidase 1, 890 µM.

Consider `O=Cc1ccco1` [FURFURAL], for which the IC50 at Tyrosinase (read-out: IC50) came out at 43 µM; against Aldehyde oxidase 1, 700 µM.

In turn, `O=Cc1ccccc1` [BENZALDEHYDE] registered an IC50 against Aldehyde oxidase 1 of 660 µM.

Regarding `O=C(O)c1cccnc1S` [2-MERCAPTONICOTINIC ACID], the IC50 on Tyrosinase (read-out: IC50) was 80 µM; at Aldehyde oxidase 1, more than 1000 µM; against Catalase, more than 1000 µM.

For the molecule `O=C(O)c1ccc(Cl)cc1O`, the IC50 on Tyrosinase (read-out: IC50) is 520 µM; on Aldehyde oxidase 1 it was more than 1000 µM; against Catalase, more than 1000 µM.

For `O=Cc1ccoc1` [FURAN-3-CARBALDEHYDE], the IC50 on Tyrosinase (read-out: IC50) was determined as 15 µM; at Aldehyde oxidase 1, 260 µM.

With `O=Cc1cnc(Cl)s1`, the IC50 on Tyrosinase (read-out: IC50) was 64 µM; against Aldehyde oxidase 1, 360 µM.

`O=C(O)C1CCOC1` (stereo not drawn): the IC50 at Tyrosinase (read-out: IC50), on Aldehyde oxidase 1 and against Catalase was more than 1000 µM in each case.

On to `O=C(c1ccc(OCCN2CCCCC2)cc1)c1c(-c2ccc(O)cc2)sc2cc(O)ccc12` [RALOXIFENE], for which the 50% inhibitory concentration (IC50) entry was “ND(Insoluble)” against Tyrosinase and 1530 µM on Aldehyde oxidase 1.

As to `O=C(O)c1ccc(Cl)nc1` [6-CHLORONICOTINIC ACID], the IC50 at Tyrosinase (read-out: IC50), against Aldehyde oxidase 1 and on Catalase was more than 1000 µM each time.

For the molecule `O=C(O)c1ccc(S)nc1` [6-MERCAPTONICOTINIC ACID], the IC50 on Tyrosinase (read-out: IC50) is 42 µM; on Aldehyde oxidase 1, more than 1000 µM; against Catalase, more than 1000 µM.

In the case of `O=Cc1ccc(O)cc1` [4-HYDROXYBENZALDEHYDE], the IC50 was determined as 770 µM on Tyrosinase (read-out: IC50) and 570 µM on Aldehyde oxidase 1.
